# Key:
# MLLT1 = biological target: T1, MLLT1 (Homo sapiens, UniProt Q03111); experiment: MLLT1 degradation assay in MV4-11 cells (JESS chemiluminescent detection), three concentrations, 24 h; format: cell-based; details: with respect to DMSO control
# T1 construct: host or cells: MV4-11
# T1 sequence (Q03111 1-559): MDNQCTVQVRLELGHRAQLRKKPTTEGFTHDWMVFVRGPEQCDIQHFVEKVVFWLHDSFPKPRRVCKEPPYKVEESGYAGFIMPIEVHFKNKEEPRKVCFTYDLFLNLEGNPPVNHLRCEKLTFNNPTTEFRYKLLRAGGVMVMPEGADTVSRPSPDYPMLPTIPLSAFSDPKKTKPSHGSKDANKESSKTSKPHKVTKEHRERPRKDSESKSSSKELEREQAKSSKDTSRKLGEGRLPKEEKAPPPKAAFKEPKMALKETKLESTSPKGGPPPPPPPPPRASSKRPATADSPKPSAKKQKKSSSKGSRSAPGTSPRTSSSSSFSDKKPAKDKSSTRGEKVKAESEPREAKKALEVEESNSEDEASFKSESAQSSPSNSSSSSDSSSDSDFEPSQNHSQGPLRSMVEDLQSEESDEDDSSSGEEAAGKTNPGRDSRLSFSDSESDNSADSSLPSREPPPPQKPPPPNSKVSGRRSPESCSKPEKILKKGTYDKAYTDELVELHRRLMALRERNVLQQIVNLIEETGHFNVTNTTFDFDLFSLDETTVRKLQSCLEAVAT
# How it was run: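 MV4-11 cells treated 24 h at 37° C, 5% CO2 with 1000, 100 and 10 nM compound (0.1% DMSO final). MLLT1 quantified by automated capillary chemiluminescent immunodetection; band peak area expressed as % degradation relative to DMSO control.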
# MV4-11 cells = experiment: MV4-11 cellular proliferative assay, Assay Format B (CTG 2.0, 168 h); format: cell-based; details: Homo sapiens, 168 h (7 days), CTG 2.0, read-out: IC50 (MV4-11 cellular proliferative assay, Assay format B)
# How it was run: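 MV4-11 cells seeded overnight in IMDM + 10% FBS, then exposed to 10-point, 3-fold dilutions from 1 uM or 100 nM top concentration (0.3% DMSO final) for 168 h at 37 °C. CTG 2.0 luminescence read; % viability vs DMSO control fitted by four-parameter logistic regression.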
SMILES,MLLT1% Degradation @ 0.01 μM (MLLT1),MLLT1% Degradation @ 0.1 μM (MLLT1),MLLT1% Degradation @ 1 μM (MLLT1),IC50 (MV4-11 cells) [nM]
"CN1CCC[C@@H]1c1cc2cnc(NC(=O)c3ccc(N4CCN(Cc5ccc(-c6cccc7c6CN(C6CCC(=O)NC6=O)C7=O)cc5)CC4)cc3)cc2[nH]1 (stereo partly drawn) [Example 98, 4-(4-(4-(2-(2,6-dioxopiperidin-3-yl)-1-oxoisoindolin-4-yl)benzyl)piperazin-1-yl)-N-(2-((R)-1-methylpyrrolidin-2-yl)-1H-pyrrolo[3,2-c]pyridin-6-yl)benzamide]",A (Category A: A ≥ 75% degradation),A (Category A: A ≥ 75% degradation),A (Category A: A ≥ 75% degradation),≤ 100
"Cc1cc(C2CCN(c3ccc(C(=O)Nc4cc5[nH]c([C@H]6CCCN6C)cc5cn4)cn3)CC2)ccc1-c1cccc2c1CN(C1CCC(=O)NC1=O)C2=O (stereo partly drawn) [Example 99, 6-(4-(4-(2-(2,6-dioxopiperidin-3-yl)-1-oxoisoindolin-4-yl)-3-methylphenyl)piperidin-1-yl)-N-(2-((R)-1-methylpyrrolidin-2-yl)-1H-pyrrolo[3,2-c]pyridin-6-yl)nicotinamide]",B (Category B: 50% ≤ B < 75% degradation),A (Category A: A ≥ 75% degradation),A (Category A: A ≥ 75% degradation),≤ 100
"CN1CCC[C@@H]1c1[nH]c2cc(NC(=O)c3ccc(CCCC#Cc4cccc5c4CN(C4CCC(=O)NC4=O)C5=O)cc3)ncc2c1Cl (stereo partly drawn) [Example 100, N-(3-chloro-2-((R)-1-methylpyrrolidin-2-yl)-1H-pyrrolo[3,2-c]pyridin-6-yl)-4-(5-(2-(2,6-dioxopiperidin-3-yl)-1-oxoisoindolin-4-yl)pent-4-yn-1-yl)benzamide]",A (Category A: A ≥ 75% degradation),A (Category A: A ≥ 75% degradation),A (Category A: A ≥ 75% degradation),≤ 100
"CN1CCC[C@@H]1c1cc2cnc(NC(=O)c3ccc(CCCC#Cc4cc(F)cc5c4CN(C4CCC(=O)NC4=O)C5=O)cc3)cc2[nH]1 (stereo partly drawn) [Example 101, 4-(5-(2-(2,6-dioxopiperidin-3-yl)-6-fluoro-1-oxoisoindolin-4-yl)pent-4-yn-1-yl)-N-(2-((R)-1-methylpyrrolidin-2-yl)-1H-pyrrolo[3,2-c]pyridin-6-yl)benzamide]",A (Category A: A ≥ 75% degradation),A (Category A: A ≥ 75% degradation),A (Category A: A ≥ 75% degradation),≤ 100
"CN1CCC[C@@H]1c1cc2cnc(NC(=O)c3ccc(C4CCN(C(=O)CC5CCN(c6cccc7c6CN(C6CCC(=O)NC6=O)C7=O)CC5)CC4)cc3)cc2[nH]1 (stereo partly drawn) [Example 107, 4-(1-(2-(1-(2-(2,6-dioxopiperidin-3-yl)-1-oxoisoindolin-4-yl)piperidin-4-yl)acetyl)piperidin-4-yl)-N-(2-((R)-1-methylpyrrolidin-2-yl)-1H-pyrrolo[3,2-c]pyridin-6-yl)benzamide]",B (Category B: 50% ≤ B < 75% degradation),A (Category A: A ≥ 75% degradation),A (Category A: A ≥ 75% degradation),≤ 100
"CN1CCC[C@@H]1c1cc2cnc(NC(=O)c3ccc(N4CCN(C(=O)CC5CCN(c6cccc7c6CN(C6CCC(=O)NC6=O)C7=O)CC5)CC4)nc3)cc2[nH]1 (stereo partly drawn) [Example 108, 6-(4-(2-(1-(2-(2,6-dioxopiperidin-3-yl)-1-oxoisoindolin-4-yl)piperidin-4-yl)acetyl)piperazin-1-yl)-N-(2-((R)-1-methylpyrrolidin-2-yl)-1H-pyrrolo[3,2-c]pyridin-6-yl)nicotinamide]",A (Category A: A ≥ 75% degradation),A (Category A: A ≥ 75% degradation),B (Category B: 50% ≤ B < 75% degradation),≤ 100
"CN1CCC[C@@H]1c1cc2cnc(NC(=O)c3ccc(N4CCC(OCc5ccc(-c6cccc7c6CN(C6CCC(=O)NC6=O)C7=O)cc5)CC4)nc3)cc2[nH]1 (stereo partly drawn) [Example 109, 6-(4-((4-(2-(2,6-dioxopiperidin-3-yl)-1-oxoisoindolin-4-yl)benzyl)oxy)piperidin-1-yl)-N-(2-((R)-1-methylpyrrolidin-2-yl)-1H-pyrrolo[3,2-c]pyridin-6-yl)nicotinamide]",B (Category B: 50% ≤ B < 75% degradation),A (Category A: A ≥ 75% degradation),A (Category A: A ≥ 75% degradation),≤ 100
"[2H]C([2H])([2H])N1CCC[C@@H]1c1cc2cnc(NC(=O)c3ccc(CCCC#Cc4cccc5c4CN(C4CCC(=O)NC4=O)C5=O)cc3)cc2[nH]1 (stereo partly drawn) [Example 111, 4-(5-(2-(2,6-dioxopiperidin-3-yl)-1-oxoisoindolin-4-yl)pent-4-yn-1-yl)-N-(2-((R)-1-(methyl-d3)pyrrolidin-2-yl)-1H-pyrrolo[3,2-c]pyridin-6-yl)benzamide]",A (Category A: A ≥ 75% degradation),A (Category A: A ≥ 75% degradation),A (Category A: A ≥ 75% degradation),≤ 100
"CN1CCC[C@@H]1c1cc2cnc(NC(=O)c3ccc(CCCCC#Cc4cccc5c4CN(C4CCC(=O)NC4=O)C5=O)cc3F)cc2[nH]1 (stereo partly drawn) [Example 112, 4-(6-(2-(2,6-dioxopiperidin-3-yl)-1-oxoisoindolin-4-yl)hex-5-yn-1-yl)-2-fluoro-N-(2-((R)-1-methylpyrrolidin-2-yl)-1H-pyrrolo[3,2-c]pyridin-6-yl)benzamide]",A (Category A: A ≥ 75% degradation),A (Category A: A ≥ 75% degradation),A (Category A: A ≥ 75% degradation),≤ 100
"CN1CCC[C@@H]1c1[nH]c2cc(NC(=O)c3ccc(CCCCC#Cc4cccc5c4CN(C4CCC(=O)NC4=O)C5=O)cc3F)ncc2c1Cl (stereo partly drawn) [Example 113, N-(3-chloro-2-((R)-1-methylpyrrolidin-2-yl)-1H-pyrrolo[3,2-c]pyridin-6-yl)-4-(6-(2-(2,6-dioxopiperidin-3-yl)-1-oxoisoindolin-4-yl)hex-5-yn-1-yl)-2-fluorobenzamide]",A (Category A: A ≥ 75% degradation),A (Category A: A ≥ 75% degradation),A (Category A: A ≥ 75% degradation),≤ 100
"COc1cc(CCCCC#Cc2cccc3c2CN(C2CCC(=O)NC2=O)C3=O)ccc1C(=O)Nc1cc2[nH]c([C@H]3CCCN3C)cc2cn1 (stereo partly drawn) [Example 115, 4-(6-(2-(2,6-dioxopiperidin-3-yl)-1-oxoisoindolin-4-yl)hex-5-yn-1-yl)-2-methoxy-N-(2-((R)-1-methylpyrrolidin-2-yl)-1H-pyrrolo[3,2-c]pyridin-6-yl)benzamide]",A (Category A: A ≥ 75% degradation),A (Category A: A ≥ 75% degradation),A (Category A: A ≥ 75% degradation),≤ 100
"CN1CCC[C@@H]1c1cc2cnc(NC(=O)c3ccc(C4CCN(CC5CCN(c6cccc7c6CN(C6CCC(=O)NC6=O)C7=O)CC5)CC4)nc3)cc2[nH]1 (stereo partly drawn) [Example 119, 6-(1-((1-(2-(2,6-dioxopiperidin-3-yl)-1-oxoisoindolin-4-yl)piperidin-4-yl)methyl)piperidin-4-yl)-N-(2-((R)-1-methylpyrrolidin-2-yl)-1H-pyrrolo[3,2-c]pyridin-6-yl)nicotinamide]",B (Category B: 50% ≤ B < 75% degradation),A (Category A: A ≥ 75% degradation),A (Category A: A ≥ 75% degradation),≤ 100
"COc1cc(N2CCN(CC3CCN(c4cccc5c4CN(C4CCC(=O)NC4=O)C5=O)CC3)CC2)cc(F)c1C(=O)Nc1cc2[nH]c([C@H]3CCCN3C)cc2cn1 (stereo partly drawn) [Example 120, 4-(4-((1-(2-(2,6-dioxopiperidin-3-yl)-1-oxoisoindolin-4-yl)piperidin-4-yl)methyl)piperazin-1-yl)-2-fluoro-6-methoxy-N-(2-((R)-1-methylpyrrolidin-2-yl)-1H-pyrrolo[3,2-c]pyridin-6-yl)benzamide]",B (Category B: 50% ≤ B < 75% degradation),A (Category A: A ≥ 75% degradation),C (Category C: 25% ≤ C < 50% degradation),≤ 100
